Laboratory results reported in PubChem BioAssay AID248 (DTP/NCI, 2004).
Values joined by “and” are separate entries in the source; they are usually repeats but may differ in a detail not shown here. Identical values can stand only once. Inconclusive results and toxic doses are left out. Cut-off read from the data, not from the text of the source: active = T/C of 150% or more; inactive = T/C below 125%.

System: L1210 leukemia ip in BDF1 mice, survival T/C
Test: NCI In Vivo Anticancer Drug Screen. Data for tumor model L1210 Leukemia (intraperitoneal) in B6D2F1 (BDF1) mice
Details: endpoint: mean survival time, higher = longer survival
How it was run: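 Each compound was tested against a transplantable tumor grown in mice. The endpoint was survival, with treated animals benchmarked against vehicle controls as a simple ratio.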

[1] = dose: 100.0 mg/kg/injection, schedule: Q01DX001 (ip), vehicle: saline
[2] = dose: 200.0 mg/kg/injection, schedule: Q01DX001 (ip), vehicle: saline
[3] = dose: 100.0 mg/kg/injection, schedule: Q04DX002 (ip), vehicle: Klucel (hydroxypropylcellulose) (HPC)
[4] = dose: 200.0 mg/kg/injection, schedule: Q04DX002 (ip), vehicle: Klucel (hydroxypropylcellulose) (HPC)
[5] = dose: 400.0 mg/kg/injection, schedule: Q04DX002 (ip), vehicle: Klucel (hydroxypropylcellulose) (HPC)
[6] = dose: 100.0 mg/kg/injection, schedule: Q04DX002 (ip), vehicle: saline
[7] = dose: 200.0 mg/kg/injection, schedule: Q04DX002 (ip), vehicle: saline
[8] = dose: 15.0 mg/kg/injection, schedule: Q01DX Z (ip), vehicle: carboxymethylcellulose (CMC)
[9] = dose: 30.0 mg/kg/injection, schedule: Q01DX Z (ip), vehicle: carboxymethylcellulose (CMC)
[10] = dose: 60.0 mg/kg/injection, schedule: Q01DX Z (ip), vehicle: carboxymethylcellulose (CMC)
[11] = dose: 120.0 mg/kg/injection, schedule: Q01DX Z (ip), vehicle: carboxymethylcellulose (CMC)
[12] = dose: 100.0 mg/kg/injection, schedule: Q01DX009 (ip), vehicle: Klucel (hydroxypropylcellulose) (HPC)
[13] = dose: 100.0 mg/kg/injection, schedule: Q04DX003 (ip), vehicle: saline with Tween-80
[14] = dose: 200.0 mg/kg/injection, schedule: Q01DX009 (ip), vehicle: Klucel (hydroxypropylcellulose) (HPC)
[15] = dose: 200.0 mg/kg/injection, schedule: Q04DX003 (ip), vehicle: saline with Tween-80
[16] = dose: 400.0 mg/kg/injection, schedule: Q04DX003 (ip), vehicle: saline with Tween-80
[17] = dose: 120.0 mg/kg/injection, schedule: Q01DX Z (oral), vehicle: carboxymethylcellulose (CMC)
[18] = dose: 240.0 mg/kg/injection, schedule: Q01DX Z (oral), vehicle: carboxymethylcellulose (CMC)

Measured: T/C

CC(=O)/C(C)=C/C=O
inactive: dose: 0.78 mg/kg/injection, schedule: Q01DX009 (ip), vehicle: water 100 % of control | dose: 1.56 mg/kg/injection, schedule: Q01DX009 (ip), vehicle: water 102 % of control | dose: 3.12 mg/kg/injection, schedule: Q01DX009 (ip), vehicle: water 94 % of control | dose: 3.12 mg/kg/injection, schedule: Q04DX003 (ip), vehicle: water 95 % of control | dose: 6.25 mg/kg/injection, schedule: Q01DX009 (ip), vehicle: water 102 % of control | dose: 6.25 mg/kg/injection, schedule: Q04DX003 (ip), vehicle: water 101 % of control | dose: 12.5 mg/kg/injection, schedule: Q01DX009 (ip), vehicle: water 107 % of control | dose: 12.5 mg/kg/injection, schedule: Q04DX003 (ip), vehicle: water 100 % of control and 101 % of control

Nc1nc2c(ncn2C2OC(COC(=O)c3ccc(Cl)cc3)C(OC(=O)c3ccc(Cl)cc3)C2OC(=O)c2ccc(Cl)cc2)c(=O)[nH]1 (centres undefined)
inactive: dose: 50.0 mg/kg/injection, schedule: Q01DX001 (ip), vehicle: carboxymethylcellulose (CMC) 95 % of control | dose: 100.0 mg/kg/injection, schedule: Q01DX001 (ip), vehicle: carboxymethylcellulose (CMC) 97 % of control | dose: 200.0 mg/kg/injection, schedule: Q01DX001 (ip), vehicle: carboxymethylcellulose (CMC) 91 % of control | dose: 400.0 mg/kg/injection, schedule: Q01DX001 (ip), vehicle: carboxymethylcellulose (CMC) 97 % of control

c1ccc2c(c1)c(N1CCOCC1)nn1nnnc21
inactive: dose: 37.5 mg/kg/injection, schedule: Q04DX003 (ip), vehicle: saline 101 % of control | dose: 75.0 mg/kg/injection, schedule: Q04DX003 (ip), vehicle: saline 98 % of control | dose: 150.0 mg/kg/injection, schedule: Q04DX003 (ip), vehicle: saline 98 % of control

CC1CN(CCCCO)C(=O)NC1=O (centres undefined)
inactive: [1] 90 % of control | [2] 88 % of control

CCCCCCCCC(O)(CCCCCCC)C(=O)O (centres undefined)
inactive: [3] 95 % of control | [4] 117 % of control | [5] 115 % of control

CS/C(=C\C(=O)c1ccccc1)C(=O)O
inactive: [6] 110 % of control | [7] 100 % of control | dose: 400.0 mg/kg/injection, schedule: Q04DX002 (ip), vehicle: saline 100 % of control

CCOC(=O)C(N=Nc1nn[nH]n1)C(C)=O (centres undefined)
inactive: dose: 100.0 mg/kg/injection, schedule: Q04DX003 (ip), vehicle: acetone 109 % of control | dose: 200.0 mg/kg/injection, schedule: Q04DX003 (ip), vehicle: acetone 94 % of control | dose: 400.0 mg/kg/injection, schedule: Q04DX003 (ip), vehicle: acetone 108 % of control

Oc1ccc(Nc2cc(/C=C/c3ccc(Cl)cc3)nc(/C=C/c3ccc(Cl)cc3)n2)cc1CN1CCCC1
inactive: dose: 50.0 mg/kg/injection, schedule: Q01DX001 (ip), vehicle: saline 89 % of control | dose: 50.0 mg/kg/injection, schedule: Q04DX003 (ip), vehicle: Klucel (hydroxypropylcellulose) (HPC) 104 % of control | [1] 93 % of control | dose: 100.0 mg/kg/injection, schedule: Q04DX003 (ip), vehicle: Klucel (hydroxypropylcellulose) (HPC) 95 % of control | [2] 91 % of control | dose: 200.0 mg/kg/injection, schedule: Q04DX003 (ip), vehicle: Klucel (hydroxypropylcellulose) (HPC) 98 % of control

CCOC(=O)N/N=C\C(C)=N\NC(=O)OCC
inactive: [8] 105 % of control | [9] 98 % of control | [10] 97 % of control and 105 % of control | [11] 94 % of control and 97 % of control | dose: 240.0 mg/kg/injection, schedule: Q01DX Z (ip), vehicle: carboxymethylcellulose (CMC) 96 % of control | dose: 480.0 mg/kg/injection, schedule: Q01DX Z (ip), vehicle: carboxymethylcellulose (CMC) 87 % of control

Cc1ccc(C(=O)C(Br)C(Br)c2ccccc2)cc1 (centres undefined)
inactive: [12] 89 % of control | dose: 100.0 mg/kg/injection, schedule: Q01DX009 (ip), vehicle: saline with Tween-80 90 % of control | [13] 92 % of control | [14] 89 % of control | dose: 200.0 mg/kg/injection, schedule: Q01DX009 (ip), vehicle: saline with Tween-80 89 % of control | [15] 89 % of control | dose: 400.0 mg/kg/injection, schedule: Q01DX009 (ip), vehicle: Klucel (hydroxypropylcellulose) (HPC) 96 % of control | [16] 95 % of control

CC(/C=N/N=C(N)N)=N\NC(N)=S
inactive: [8] 98 % of control | [9] 101 % of control | dose: 30.0 mg/kg/injection, schedule: Q01DX Z (oral), vehicle: carboxymethylcellulose (CMC) 103 % of control | [10] 111 % of control | dose: 60.0 mg/kg/injection, schedule: Q01DX Z (oral), vehicle: carboxymethylcellulose (CMC) 103 % of control | [11] 114 % of control | [17] 106 % of control | [18] 105 % of control

O=C1NC2C=CC1/C=C\C=C/2 (centres undefined)
inactive: [6] 96 % of control | [7] 86 % of control

CC1(C)C=CC(=NO)C=C1
inactive: [12] 96 % of control | [14] 97 % of control

C/C(=N/Nc1ccc([N+](=O)[O-])cc1[N+](=O)[O-])c1ccccc1
inactive: [13] 88 % of control | [15] 93 % of control | [16] 90 % of control

C#CC(C)OCC(O)CCl (centres undefined)
inactive: dose: 25.0 mg/kg/injection, schedule: Q01DX009 (ip), vehicle: saline 97 % of control | dose: 50.0 mg/kg/injection, schedule: Q01DX009 (ip), vehicle: saline 105 % of control | dose: 100.0 mg/kg/injection, schedule: Q01DX009 (ip), vehicle: saline 103 % of control and 89 % of control | dose: 100.0 mg/kg/injection, schedule: Q04DX003 (ip), vehicle: saline sonified 97 % of control | dose: 200.0 mg/kg/injection, schedule: Q04DX003 (ip), vehicle: saline sonified 87 % of control | dose: 400.0 mg/kg/injection, schedule: Q04DX003 (ip), vehicle: saline sonified 103 % of control

C[CH2][Ge]([CH2]C)([CH2]C)[CH2]C#N
inactive: dose: 5.0 mg/kg/injection, schedule: Q04DX002 (ip), vehicle: saline with Tween-80 100 % of control | dose: 10.0 mg/kg/injection, schedule: Q04DX002 (ip), vehicle: saline with Tween-80 103 % of control | dose: 20.0 mg/kg/injection, schedule: Q04DX002 (ip), vehicle: saline with Tween-80 100 % of control

O=P(Nc1ccccc1)(N1CCCCC1)N1CCCCC1
inactive: dose: 100.0 mg/kg/injection, schedule: Q04DX002 (ip), vehicle: saline with Tween-80 101 % of control | dose: 200.0 mg/kg/injection, schedule: Q04DX002 (ip), vehicle: saline with Tween-80 101 % of control | dose: 400.0 mg/kg/injection, schedule: Q04DX002 (ip), vehicle: saline with Tween-80 108 % of control

O=c1c2ccccc2[nH]c(=S)n1CCc1ccccn1
inactive: [3] 100 % of control | [4] 95 % of control | [5] 89 % of control

O=S(Sc1ccccc1)c1ccccc1 (centres undefined)
inactive: dose: 0.94 mg/kg/injection, schedule: Q01DX Z (ip), vehicle: saline 104 % of control | dose: 3.75 mg/kg/injection, schedule: Q01DX Z (ip), vehicle: saline 96 % of control

C/C(=N/NC(=O)c1ccccc1)C(=O)c1ccccc1
inactive: dose: 100.0 mg/kg/injection, schedule: Q01DX001 (ip), vehicle: Klucel (hydroxypropylcellulose) (HPC) 101 % of control | dose: 200.0 mg/kg/injection, schedule: Q01DX001 (ip), vehicle: Klucel (hydroxypropylcellulose) (HPC) 97 % of control | dose: 400.0 mg/kg/injection, schedule: Q01DX001 (ip), vehicle: Klucel (hydroxypropylcellulose) (HPC) 98 % of control

NC(N)=N/N=C\c1ccc(O)c(O)c1
inactive: [8] 97 % of control | [9] 97 % of control | [10] 113 % of control | [11] 116 % of control | [17] 109 % of control | [18] 107 % of control | dose: 480.0 mg/kg/injection, schedule: Q01DX Z (oral), vehicle: carboxymethylcellulose (CMC) 103 % of control | dose: 960.0 mg/kg/injection, schedule: Q01DX Z (oral), vehicle: carboxymethylcellulose (CMC) 114 % of control
